System: HEK293 cells (human embryonic kidney cells)
Assay: coenzyme Q10 production in mitochondria of HEK293 cells cultured with nicotinamide mononucleotide, quantified by LC-MS
Type: cell-based
Details: HEK293 cells cultured three days in DMEM medium with 1 mM or 2.5 mM β-nicotinamide mononucleotide daily added; control 0 mM
Method: To examine a production promoting effect of coenzyme Q10 caused by nicotinamide mononucleotide, HEK293 cells (human embryonic kidney cells) were cultured for three days (37° C., 5% CO2) in DMEM medium containing β-nicotinamide mononucleotide with a predetermined concentration (0 mM (control), 1 mM, and 2.5 mM daily added). Three days after the first day of culture, mitochondria were isolated from the HEK293 cells, and contained amounts of each of the reduced form (ubiquinol) and the oxidized form (ubiquinone) of coenzyme Q10 in the mitochondria were quantified by LC-MS method (LC column: KINETEX C18 column (Phenomenex), MS: Shimadzu LCMS-8060 (Shimadzu Corporation), eluent: 10 mM ammonium formate in Methanol, flow rate: 0.5 mL/minute, detection: MS/MS analysis by multiple reaction monitoring (MRM) method; Q10H2 883.6→197.15 m/z, Q10 881.4→197.15 m/z, Q9H2 815.6→197.15 m/z, Q9 813.6→197.15 m/z, Q8H2 747.6→197.15 m/z, Q8 745.6→197.15 m/z) (column: ODS, column temperature: 40° C., eluent: 70% acetonitrile/methanol (1:1) and 30% 0.05 M ammonium formate (prepared to be pH 7.2 with 10% ammonia water), flow rate: 1.0 mL/minute, detection: UV276 nm). […]

Question: Which “sum amount of the reduced form and the oxidized form of coenzyme Q10 in the mitochondria, change vs control” value does the source give for `NC(=O)c1ccc[n+]([C@@H]2O[C@H](COP(=O)(O)O)[C@@H](O)[C@H]2O)c1` [nicotinamide mononucleotide] here?
Answer: approximately doubled
